Experiments:
[1] = Metabolic stability assay in rat liver microsomes; assay type: in vitro ADME; conditions: 1 μM compound, 0.5 mg/ml microsomal protein, 37° C.; for half-life at 1 µM: rat, liver microsomes, read-out: Metabolic stability half-life (T1/2, min, rat liver microsome)
Protocol: The metabolic stability of the compounds was evaluated in incubation with rat liver microsomes.

[2] = tested on: cultured mammalian cells, the NIH-3T3 cells, C2C12 cells, and other mammalian cell lines; assay: Mitochondrial membrane potential (MMP) assay, TMRE (or DilC1(5)) staining, related to OCR induction; assay type: cell-based; conditions: ratio of concentration leading to 10% MMP retention (90% MMP loss, TMRE) to minimal concentration leading to OCR increase
Protocol: Mitochondrial membrane potential assay was performed using the standard TMRE (tetramethylrhodamine ethyl ester) staining method with cultured mammalian cells, the NIH-3T3 cells, C2C12 cells, and other mammalian cell lines. Cells were seeded in 6-well plates and cultured in DMEM medium supplemented with 10% fetal bovine serum and 2 mM glutamine. Cells were allowed to grow to the logarithmic growth phase prior to experiments. The cells were treated with each individual compound at various concentrations for two hours, followed by staining with TMRE at a final concentration of 100 nM for 15 minutes. The cells were then washed once with PBS, and examined under fluorescence microscopy. Cells treated with various concentrations of niclosamide ethanolamine were used as a positive control.
In some examples, mitochondrial membrane potential was measured with DilC1(5) staining. Briefly, DilC1(5) was added to the cells to 50 nM final concentration and the cells were incubated at 37° C., 5% CO2, for 15 to 30 minutes. Cells were washed once by adding 2 mL of warm phosphate-buffered saline (PBS). Mitochondrial staining was determined by fluorescence microscopy with 633 nm excitation using standard filters for far-red emission.
Using the ratio between C10% TMRE (the concentration at which 10% MMP remains, i.e. 90% MMP is lost) and Cmin-OCR (the concentration at which minimal OCR induction is observed), we categorized the MMP-retaining uncouplers into two groups.

[3] = PO pharmacokinetic study, oral exposure (Example B3); assay type: in vivo; conditions: blood, po; for AUC at 24 h: 10 mg/kg gavage
Protocol: The blood concentration of the compound was then determined at 0 (pre-dosing), 5 min, 15 min, 30 min, 1 hr, 2 hr, 4 hr, 8 hr, 24 hr time points by LC-MS/MS analysis (See Tables 1 and 2, vide supra).

[4] = tested on: high-fat diet (HFD)-induced diabetic mouse model; assay: Efficacy in high-fat diet (HFD)-induced diabetic/fatty liver mouse model; assay type: in vivo; conditions: Mus musculus; HFD model, oral daily gavage; read-out: Efficacious dosage to reduce blood glucose in mouse models, oral daily gavage
Protocol: For HFD induced diabetic mouse model, C57Bl6 mice (male, n=6) were induced to obese and diabetic conditions by feeding high-fat diet (HFD, 60% fat calories, Research Diet, Inc. New Brunswick, NJ) for 3-4 months. […] During the 3-week period, the mice continued feeding HFD. […] The blood glucose levels were measured after an overnight fast, plasma insulin levels were tested after 5-6 hours fast, and the glycated HbA1c levels were determined in whole blood samples.
FIG. 15C and FIG. 15D show liver sections from mice fed HFD following 3 weeks of treatment with Compounds 25 and 64, respectively (P.O. dosing of 5 mg/kg, by daily gavage).
Experiments were similarly performed with other compounds, in either high-fat diet induced diabetes and fatty liver models, or in db/db mouse model, or in both, by daily oral gavage administration with low dosages.

[5] = tested on: C2C12 cells; assay: Mitochondrial uncoupling activity by oxygen consumption rate (OCR) assay, Seahorse, in presence of oligomycin; assay type: cell-based, mouse; conditions: for minimal effective concentration: Mus musculus, C2C12, in the presence of oligomycin 2.5 μM, read-out: COCR-min: minimal concentration increasing OCR in the presence of oligomycin
Protocol: By definition, mitochondrial uncoupling is the decoupling of mitochondrial electron transport chain activity (mitochondrial oxidation) from ATP synthesis by mitochondrial ATP synthase. Technically, mitochondrial uncoupling activity is defined by the ability of a chemical compound to induce oxygen consumption of cells or isolated mitochondria in the presence of a mitochondrial ATP synthase inhibitor such as oligomycin. Accordingly, mitochondrial uncoupling activity was determined by oxygen consumption rate assay with a Seahorse XF96 or a Seahorse XF24 instrument following the vendor's instruction, using mouse myoblast C2C12 cells grown in a medium containing 10% fetal bovine serum. OCR was measured stepwise under the following conditions: first under normal growth conditions; then. OCR was measured after oligomycin was added to reach a final concentration of 2.5 μM); then OCR was measured after the compound was further added at varying concentrations. Finally, rotenone and antimycin A were added to confirm that the measurement was mitochondrial oxygen consumption (rotenone and […] mitochondrial electron transport chain inhibitors).
COCR-min the minimal concentration required for each compound to induce OCR in the presence of oligomycin, of disclosed compounds, was also determined by varying the final concentration of the compound added to the Seahorse OCR analysis experiment as described above (FIG. 2, varying testing compound concentration). Table 8 summarizes the mitochondrial uncoupling activity of disclosed compounds, as represented by COCR-min.

Compound | C10%TMRE/Cmin-OCR [2] | also measured
CN(C)Cc1cc(Cl)cc(C(=O)Nc2nc3ccc(C(F)(F)F)cc3s2)c1O | – | half-life at 1 µM [1]: 14.7 h
CN(C)Cc1cc(Cl)cc(C(=O)Nc2nc3ccc(OC(F)(F)F)cc3s2)c1O | – | Metabolic stability half-life (T1/2, min, rat liver microsome) [1]: ∞
O=C(Nc1nc2ccc(C(F)(F)F)cc2s1)c1cc(Cl)cc(CN2CCOCC2)c1O | – | half-life at 1 µM [1]: 1.5 h
O=C(Nc1ccc(C(F)(F)F)cc1Cl)c1cc(Cl)ccc1O | [drawing 351] | –
O=C(Nc1ccc(C(F)(F)F)nc1)c1cc(Cl)ccc1O | [drawing 354] | –
O=C(Nc1nc2ccc(C(F)(F)F)cc2s1)c1cc(Cl)cc(C2CCCO2)c1O (stereo not drawn) [Compound 15, 5-chloro-2-hydroxy-3-(tetrahydrofuran-2-yl)-N-(6-(trifluoromethyl)benzo[d]thiazol-2-yl)benzamide] | – | AUC at 24 h [3]: > 120000 ng·h/mL; minimal effective dose [4]: 2.5 mg/kg; minimal effective concentration [5]: < 5 µM
N#CC1CCN(Cc2cc(Cl)cc(C(=O)Nc3nc4ccc(C(F)(F)F)cc4s3)c2O)C1 (stereo not drawn) [Compound 36, 5-chloro-3-((3-cyanopyrrolidin-1-yl)methyl)-2-hydroxy-N-(6-(trifluoromethyl)benzo[d]thiazol-2-yl)benzamide] | ~36 | minimal effective concentration [5]: < 5 µM
CS(=O)(=O)C1CCN(Cc2cc(Cl)cc(C(=O)Nc3nc4ccc(C(F)(F)F)cc4s3)c2O)C1 (stereo not drawn) [Compound 37, 5-chloro-2-hydroxy-3-((3-(methylsulfonyl)pyrrolidin-1-yl)methyl)-N-(6-(trifluoromethyl)benzo[d]thiazol-2-yl)benzamide] | ~37 | minimal effective concentration [5]: > 10 µM
COCCOCc1cc(F)cc(C(=O)Nc2nc3ccc(C(F)(F)F)cc3s2)c1O [Compound 43] | ~43 | minimal effective concentration [5]: < 5 µM
COCCOCc1cc(C(F)(F)F)cc2sc(NC(=O)c3cc(Cl)cc(CN4CCCCC4)c3O)nc12 [Compound 66, 5-chloro-2-hydroxy-N-(4-((2-methoxyethoxy)methyl)-6-(trifluoromethyl)benzo[d]thiazol-2-yl)-3-(piperidin-1-ylmethyl)benzamide] | – | AUC at 24 h [3]: 30000 to 60000 ng·h/mL; minimal effective concentration [5]: < 5 µM
COCCN(CCOC)Cc1cc(Cl)cc(C(=O)Nc2nc3c(COC)cc(C(F)(F)F)cc3s2)c1O [Compound 69, 3-((bis(2-methoxyethyl)amino)methyl)-5-chloro-2-hydroxy-N-(4-(methoxymethyl)-6-(trifluoromethyl)benzo[d]thiazol-2-yl)benzamide] | – | AUC at 24 h [3]: 10000 to 30000 ng·h/mL; minimal effective concentration [5]: < 5 µM; effect on oxygen consumption rate (OCR) ([5]; in words): increase OCR in the presence of oligomycin
Cc1cc(Cl)cc(C(=O)Nc2nc3c(COCc4ccc(F)cc4)cc(C(F)(F)F)cc3s2)c1O [Compound 83, 5-chloro-N-(4-(((4-fluorobenzyl)oxy)methyl)-6-(trifluoromethyl)benzo[d]thiazol-2-yl)-2-hydroxy-3-methylbenzamide] | ~83 | minimal effective concentration [5]: < 5 µM
Cc1cc(Cl)cc(C(=O)Nc2nc3c(CN4CCN(C)CC4)cc(C(F)(F)F)cc3s2)c1O [Example 78, 5-chloro-2-hydroxy-3-methyl-N-(4-((4-methylpiperazin-1-yl)methyl)-6-(trifluoromethyl)benzo[d]thiazol-2-yl)benzamide] | – | AUC(0-t) at 24 h ([3]; 10 mg/kg, 24 hr): 58400 ng·h/mL; AUC at 24 h [3]: 30000 to 60000 ng·h/mL; minimal effective concentration [5]: < 5 µM
COc1cc(Cl)cc(C(=O)Nc2nc3ccc(C(F)(F)F)cc3s2)c1O [Example 97, 5-chloro-2-hydroxy-3-methoxy-N-(6-(trifluoromethyl)benzo[d]thiazol-2-yl)benzamide] | – | AUC at 24 h [3]: 10000 to 30000 ng·h/mL; minimal effective concentration [5]: < 5 µM
COCCN(CCOC)Cc1cc(Cl)cc(C(=O)Nc2nc3ccc(C(F)(F)F)cc3s2)c1O [drawing 263] | – | half-life at 1 µM [1]: 0.467 h
O=C(Nc1nc2ccc(C(F)(F)F)cc2s1)c1cc(Cl)cc(CN2CCCCC2)c1O [drawing 264] | – | half-life at 1 µM [1]: 1.53 h
O=C(Nc1nc2ccc(C(F)(F)F)cc2s1)c1cc(Cl)ccc1O [drawing 300] | [drawing 300] | –

Compound | C10%TMRE/Cmin-OCR [2] | also measured
O=C(Nc1nc2ccc(C(F)(F)F)cc2s1)c1cc(Cl)ccc1O [drawing 303] | [drawing 303] | –
O=C(Nc1nc2ccc(C(F)(F)F)cc2s1)c1cc(Cl)ccc1O [drawing 306] | [drawing 306] | –
O=C(Nc1nc2ccc(C(F)(F)F)cc2s1)c1cc(Cl)ccc1O [drawing 309] | [drawing 309] | –
O=C(Nc1nc2ccc(C(F)(F)F)cc2s1)c1cc(Cl)ccc1O [drawing 312] | [drawing 312] | –
O=C(Nc1nc2ccc(C(F)(F)F)cc2s1)c1cc(Cl)ccc1O [drawing 315] | [drawing 315] | –
O=C(Nc1nc2ccc(C(F)(F)F)cc2s1)c1cc(Cl)ccc1O [drawing 318] | [drawing 318] | –
O=C(Nc1nc2ccc(C(F)(F)F)cc2s1)c1cc(Cl)ccc1O [drawing 321] | [drawing 321] | –
Cc1cc(Cl)cc(C(=O)Nc2nc3ccc(C(F)(F)F)cc3s2)c1O [drawing 324] | [drawing 324] | –
Cc1cc(Cl)cc(C(=O)Nc2nc3ccc(C(F)(F)F)cc3s2)c1O [drawing 327] | [drawing 327] | –
Cc1cc(Cl)cc(C(=O)Nc2nc3ccc(C(F)(F)F)cc3s2)c1O [drawing 330] | [drawing 330] | –
Cc1cc(Cl)cc(C(=O)Nc2nc3ccc(C(F)(F)F)cc3s2)c1O [drawing 333] | [drawing 333] | –
COCc1cc(C(F)(F)F)cc2sc(NC(=O)c3cc(Cl)cc(C)c3O)nc12 [drawing 336] | [drawing 336] | –
COCCOCc1cc(C(F)(F)F)cc2sc(NC(=O)c3cc(Cl)cc(C)c3O)nc12 [drawing 339] | [drawing 339] | –
COCCOCc1cc(C(F)(F)F)cc2sc(NC(=O)c3cc(Cl)cc(C)c3O)nc12 [drawing 342] | [drawing 342] | –
COCCOCc1cc(C(F)(F)F)cc2sc(NC(=O)c3cc(Cl)cc(C)c3O)nc12 [drawing 345] | [drawing 345] | –
COCCOCc1cc(C(F)(F)F)cc2sc(NC(=O)c3cc(Cl)cc(C)c3O)nc12 [drawing 348] | [drawing 348] | –

From patent US20260306502A1, “MITOCHONDRIAL UNCOUPLERS FOR TREATMENT OF METABOLIC DISEASES AND CANCER” (Mito Biopharma, LLC, priority 2022, published 2026)
